Results on 9 compounds are retold here after patent publication US20080091033A1, “Nonsolvate-Form Crystal of Polymethine Compound, Process for Producing the Same and Use Thereof” (YAMAMOTO CHEMICALS, INC., priority 2004, published 2008).

By melting point is commonly meant the temperature, or range, at which the solid turns liquid.

Structures can show the parent of a compound that is named as a salt.

The nature of data set [1]: solution stability test (decomposition percentage from absorbance before and after standing). The class given is physicochemical. The note with it: 5% (w/v) in ethanol/methyl ethyl ketone (1/1 by volume), room temperature, 10 days of standing. Here is the method:
A solution stability test was carried out in the following manner.
Each polymethine compound specified below in Table 1 was dissolved in a mixture of ethanol and methyl ethyl ketone (1/1 by volume) to a concentration of 5% (w/v) and the solution was allowed to stand in a room (at room temperature) for 10 days. The absorbance (gram extinction coefficient) of the solution was measured before and after standing, and the decomposition percentage was calculated using the following formula.
Decomposition percentage (%)=[(absorbance just after preparation of solution−absorbance after 10 days of standing)/(absorbance just after preparation of solution)]×100

The nature of data set [2]: solubility in methanol and ethanol. It counts as physicochemical. To be noted: for solubility in ethanol: solvent ethanol; for solubility in methanol: solvent methanol.

Consider `CN1/C(=C\C=C2/CCC(/C=C/C3=[N+](C)c4ccccc4C3(C)C)=C2Cl)C(C)(C)c2ccccc21` (as salt: toluenesulfonate) (hydrate or solvate) [Example 1], for which the melting point is 199 to 200 °C (dec.).

For the compound `CN1/C(=C\C=C2/CCC(/C=C/C3=[N+](C)c4ccccc4C3(C)C)=C2Cl)C(C)(C)c2ccccc21` (as salt: toluenesulfonate) (hydrate or solvate) [Example 2], the melting point was 201 to 203 °C (dec.).

`CN1/C(=C\C=C2/CCC(/C=C/C3=[N+](C)c4ccccc4C3(C)C)=C2Cl)C(C)(C)c2ccccc21` (as salt: toluenesulfonate) (hydrate or solvate) [Example 3]: the melting point is 198 to 199 °C (dec.).

For `CN1/C(=C\C=C2/CCC(/C=C/C3=[N+](C)c4ccccc4C3(C)C)=C2Cl)C(C)(C)c2ccccc21` [Comparative Example 1, reference compound], the Decomposition percentage in data set [1] was found to be 8.1%.

Regarding `CN1/C(=C\C=C2/CCC(/C=C/C3=[N+](C)c4ccccc4C3(C)C)=C2Cl)C(C)(C)c2ccccc21` [Example 1], in data set [2], the solubility in ethanol is at least 15% and the solubility in methanol was at least 15%. The same compound yielded a Decomposition percentage in data set [1] of 2.0%.

In data set [2], `CN1/C(=C\C=C2/CCC(/C=C/C3=[N+](C)c4ccccc4C3(C)C)=C2Cl)C(C)(C)c2ccccc21` [Example 2] gave a solubility in ethanol of at least 15% and a solubility in methanol of at least 15%. In data set [1], this compound had a Decomposition percentage of 2.1%.

For `CN1/C(=C\C=C2/CCC(/C=C/C3=[N+](C)c4ccccc4C3(C)C)=C2Cl)C(C)(C)c2ccccc21` [Example 3], in data set [2], the solubility in ethanol was at least 15% and the solubility in methanol was at least 15%. The compound further gave a Decomposition percentage in data set [1] of 2.2%.

In data set [2], `CN1/C(=C\C=C2/CCC(/C=C/C3=[N+](C)c4ccccc4C3(C)C)=C2Cl)C(C)(C)c2ccccc21` [Example 4] came in with a solubility in ethanol of at least 15% and a solubility in methanol of at least 15%. In addition, in data set [1], the Decomposition percentage is reported as 1.9%.

On to `CN1/C(=C\C=C2/CCC(/C=C/C3=[N+](C)c4ccccc4C3(C)C)=C2Cl)C(C)(C)c2ccccc21` [Example 5], for which, in data set [2], the solubility in ethanol is reported as at least 15% and the solubility in methanol is recorded as at least 15%.
